Source: patent US9050268B2, “Functional amphipilic molecule or macromolecule formulations with multiple compartments” (UNIVERSITE d'AIX-MARSEILLE, priority 2009, dated 2015)

How the values were obtained:
[1] = tested on: IGROV1 (cisplatin-sensitive); assay: Cytotoxic effects on tumor lines IGROV-1 and SKOV3 (MTS cell viability); type: cell-based, human; conditions: 24 hours treatment, MTS 48 hours after washing, read-out: concentration necessary to obtain 50% cell death (IC50)
Protocol: (§1) 2500 cells (IGROV1, SKOV3, ovarian adenocarcinoma lines) per well are incubated in 100 μL of the medium with serum in a 96-well plate. After 24 hours the medium is aspirated and the cells are treated with free cisplatin or cisplatin encapsulated in the nanoparticles of Example 10 in 100 μL of the medium without serum at different concentrations (500, 100, 10, 1, 0.1, 0.01, 0.001 μM). After treatment for 24 hours, the medium is removed and the cells are washed twice with 100 μL of PBS then incubated with 100 μL of the medium with serum.
(§2) The absorbance at 490 nm is measured after incubation for 2 to 4 hours at 37° C. The absorbance is proportional to the cell viability.

[2] = tested on: SKOV3 (cisplatin-resistant); assay: as above; type: cell-based; conditions: 24 hours treatment, MTS 48 hours after washing, read-out: concentration necessary to obtain 50% cell death (IC50)
Protocol: as §1, §2

[3] = tested on: IGROV1 cells (cisplatin-sensitive ovarian adenocarcinoma line); assay: Assay of intracellular cisplatin (ICP optical assay after cell lysis); type: cell-based, human; conditions: 10^6 IGROV1 cells, 100 μM, 2 hours
Protocol: (§3) IGROV1 cells (cisplatin-sensitive ovarian adenocarcinoma line) at 80% confluence (dish 10 cm in diameter) are treated with […] of free cisplatin or cisplatin encapsulated in the nanoparticles of Example 10 for 2, 4 or 6 hours. On completion of this treatment two washings with PBS are carried out. The cells are treated with trypsin and resuspended in PBS. Two washings of the cell suspensions with PBS are carried out (centrifugation 1000 rpm/1 min). The cells are suspended in 1 mL of PBS and counted.
(§4) 10^6 cells are lysed with 500 μL of the cell lysis solution (lysis buffer from SIGMA). The volume is topped up to 5 mL with milli-Q water with 1% HNO3 acid.

[4] = tested on: SKV03 cells (cisplatin-resistant ovarian adenocarcinoma line); assay: as above; type: cell-based; conditions: 10^6 cells SKOV3, 100 μM, 2 hours
Protocol: as §3
The same procedure is followed with SKV03 cells (cisplatin-resistant ovarian adenocarcinoma line).
as §4

[5] = tested on: cisplatin-sensitive A2780 (Human ovarian carcinoma epithelial tumor); assay: Cytotoxic effects on tumor lines (MTS cell viability); type: cell-based; conditions: 24 hours treatment, MTS 48 hours after washing, read-out: concentration necessary to obtain 50% cell death (IC50)
Excerpt: (§5) The study consists of determining the concentration inhibiting 50% of cell proliferation (IC50) on a panel of tumor lines, namely • cisplatin-sensitive A2780 (Human ovarian carcinoma epithelial tumor) and cisplatin-resistant A2780/CisPt (Human ovarian carcinoma epithelial tumor) • cisplatin-sensitive IGROV-1 (Human ovarian carcinoma) and cisplatin-resistant IGROV-1/CisPt (Human ovarian carcinoma) • cisplatin-sensitive L1210 (mouse lymphocytic leukemia) and cisplatin-resistant L1210/CisPt (mouse lymphocytic leukemia) […] • NIH: OVCAR3 (ovarian carcinoma), and • P388 (mouse lymphoma)
as §1, with “(ovarian” for “(IGROV1, SKOV3, ovarian”, “lines, etc.)” for “lines)”
as §2

[6] = tested on: cisplatin-resistant A2780/CisPt (Human ovarian carcinoma epithelial tumor); assay: as above; type: cell-based; conditions: cisplatin-resistant line A2780; 24 hours treatment, MTS 48 hours after washing; read-out: concentration necessary to obtain 50% cell death (IC50)
Excerpt: as §5
as §1, with “(ovarian” for “(IGROV1, SKOV3, ovarian”, “lines, etc.)” for “lines)”
as §2

`N.N.[Cl][Pt][Cl]` [free cisplatin, cisplatin] showed an IC50 [1] of 2.41 µM, an IC50 [2] of 4.3 µM and a cisplatin internalized [3] of 0.5 nmol. The cisplatin internalized [4] was 0.5 nmol, the IC50 [5] was 4.68 µM and the IC50 [6] was 29.2 µM.
